# Experimental data taken from US20260007684A1, “AMIDE DERIVATIVES FOR INHIBITING NLRP3 AND USES THEREOF” (Ventus Therapeutics U.S., Inc., priority 2023, published 2026).
# pIC50: −log10 of the molar value. Read-outs that look alike come from different tables or passages of the source.
# What was measured:
# human NLRP3 [1] = target: T1, human NLRP3 (Homo sapiens (Human), UniProt Q96P20); test: Scintillation Proximity (SPA) NLRP3 Assay: displacement of 3H-MCC950; format: binding; details: for pIC50: read-out: SPA IC50
# T1 sequence (Q96P20 whole entry): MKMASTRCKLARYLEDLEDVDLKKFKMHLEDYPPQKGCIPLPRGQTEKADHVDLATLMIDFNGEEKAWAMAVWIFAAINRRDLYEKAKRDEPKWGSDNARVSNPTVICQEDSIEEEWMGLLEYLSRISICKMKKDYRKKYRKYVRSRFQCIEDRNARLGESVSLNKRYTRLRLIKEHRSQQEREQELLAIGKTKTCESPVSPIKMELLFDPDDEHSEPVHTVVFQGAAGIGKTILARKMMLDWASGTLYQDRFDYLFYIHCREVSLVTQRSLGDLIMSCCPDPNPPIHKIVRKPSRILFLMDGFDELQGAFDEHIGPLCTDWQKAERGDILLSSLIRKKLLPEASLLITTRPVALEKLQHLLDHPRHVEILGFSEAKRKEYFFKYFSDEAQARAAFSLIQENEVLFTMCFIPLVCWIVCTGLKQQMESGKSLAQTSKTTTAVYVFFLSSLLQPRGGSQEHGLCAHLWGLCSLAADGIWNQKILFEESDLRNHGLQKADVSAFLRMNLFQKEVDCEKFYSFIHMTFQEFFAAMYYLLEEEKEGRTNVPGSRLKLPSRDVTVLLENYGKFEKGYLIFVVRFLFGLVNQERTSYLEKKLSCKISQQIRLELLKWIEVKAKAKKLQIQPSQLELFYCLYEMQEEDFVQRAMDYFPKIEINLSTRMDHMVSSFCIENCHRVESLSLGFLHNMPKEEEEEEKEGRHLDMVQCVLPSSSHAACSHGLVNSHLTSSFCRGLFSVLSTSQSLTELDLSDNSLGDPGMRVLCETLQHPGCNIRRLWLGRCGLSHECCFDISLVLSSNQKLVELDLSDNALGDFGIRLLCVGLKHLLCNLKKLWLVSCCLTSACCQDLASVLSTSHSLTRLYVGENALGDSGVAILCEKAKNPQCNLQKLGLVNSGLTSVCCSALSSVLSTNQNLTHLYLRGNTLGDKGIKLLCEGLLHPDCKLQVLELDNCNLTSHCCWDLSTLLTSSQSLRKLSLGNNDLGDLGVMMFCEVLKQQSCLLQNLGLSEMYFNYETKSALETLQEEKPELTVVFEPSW
# human NLRP3 [2] = target: T1, human NLRP3; test: Human PBMC NLRP3 Assay (LPS priming, ATP stimulation, cytokine measurement); format: cell-based
# human NLRP3 [3] = target: T1, human NLRP3; test: Human Whole Blood (hWB) NLRP3 Assay (LPS/ATP, IL-1β); format: cell-based
# mouse NLRP3 = mouse NLRP3 (Mus musculus (Mouse), UniProt Q8R4B8); test: Mouse Whole Blood (mWB) NLRP3 Assay (LPS/ATP, IL-1b); format: cell-based
# Chain of mouse NLRP3 (Q8R4B8 whole entry): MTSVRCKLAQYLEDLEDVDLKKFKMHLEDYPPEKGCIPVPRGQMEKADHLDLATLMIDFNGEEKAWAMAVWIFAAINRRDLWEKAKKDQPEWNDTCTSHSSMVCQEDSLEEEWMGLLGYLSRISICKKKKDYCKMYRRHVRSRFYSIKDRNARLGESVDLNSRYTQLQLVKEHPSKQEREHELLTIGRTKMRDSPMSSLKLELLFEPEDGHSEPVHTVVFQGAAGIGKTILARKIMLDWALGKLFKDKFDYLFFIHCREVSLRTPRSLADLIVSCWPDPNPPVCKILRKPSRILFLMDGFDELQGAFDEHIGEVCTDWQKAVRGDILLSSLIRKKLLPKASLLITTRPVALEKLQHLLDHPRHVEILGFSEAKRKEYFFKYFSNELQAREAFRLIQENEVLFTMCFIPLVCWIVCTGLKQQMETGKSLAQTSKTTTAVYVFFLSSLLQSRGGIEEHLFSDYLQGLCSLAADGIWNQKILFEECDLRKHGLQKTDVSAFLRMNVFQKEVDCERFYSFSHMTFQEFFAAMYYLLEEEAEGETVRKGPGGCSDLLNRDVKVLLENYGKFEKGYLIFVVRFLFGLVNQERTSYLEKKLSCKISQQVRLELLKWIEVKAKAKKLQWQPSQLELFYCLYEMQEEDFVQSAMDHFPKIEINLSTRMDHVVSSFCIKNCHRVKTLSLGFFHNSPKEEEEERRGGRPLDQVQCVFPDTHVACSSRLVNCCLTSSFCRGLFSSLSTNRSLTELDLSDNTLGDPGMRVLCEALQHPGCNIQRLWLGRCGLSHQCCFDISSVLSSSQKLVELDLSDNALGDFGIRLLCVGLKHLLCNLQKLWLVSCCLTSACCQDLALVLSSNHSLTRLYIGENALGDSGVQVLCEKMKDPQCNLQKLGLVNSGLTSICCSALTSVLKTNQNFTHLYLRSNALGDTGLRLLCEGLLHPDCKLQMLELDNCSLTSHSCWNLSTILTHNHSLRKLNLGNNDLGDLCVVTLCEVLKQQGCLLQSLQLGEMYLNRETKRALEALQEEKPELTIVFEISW
# Procedure: Reagents: The following reagents were used: blood collection tubes (Heparin); U-bottom 96-well tissue culture (Falcon 353077); HBSS for LPS, ATP and compound dilutions (Gibco 24020-117); and LPS, E. coli serotype 026:B6 (Sigma L-2654).
# Mouse IL-1b MSD assay: Blood was drawn from female CD1 mice (9 to 10 weeks) by cardiac puncture. Blood was plated (135 μL) per well in 96-well U-bottom plates. 7.5 μL of 20×LPS (20 μg/mL, final concentration of 1 μg/mL) was added and mixed by gentle pipetting, and the mixture was incubated in a TC incubator for five hours. 7.5 μL of 20× compound or vehicle per well was added and mixed by gentle pipetting. Compounds were diluted 1/50 in HBSS to prepare a 20× dilution curve in […].
# The mixture was incubated for 30 minutes in a TC incubator with shaking (450 rpm). 5 μl of 31×ATP (155 mM, final concentration of 5 mM) was added and mixed by gentle pipetting. The mixture was incubated in a TC incubator for 30 minutes with shaking (450 rpm). The plate was centrifuged for 10 minutes at 800×g and −70 μL of plasma was removed. Plasma was frozen if required. Mouse IL-1b was analyzed with IL-1b MSD assay (K152TUK).
# Compounds were added 30 minutes before priming the cells with LPS when TNFα was required to be quantified in the cytokine panel to confirm selectivity.
# [4] = human PBMC, LPS priming, ATP stimulation, read-out: PBMC IC50
# [5] = human whole blood, LPS/ATP, IL-1β, read-out: hWB IC50
# [6] = mouse whole blood, LPS/ATP, IL-1b
# [7] = PBMC IC50, human PBMC, LPS priming, ATP stimulation
# [8] = hWB IC50, human whole blood, LPS/ATP, IL-1β
SMILES,pIC50 (human NLRP3 [1]; displacement of 3H-MCC950),pIC50 (human NLRP3 [2]; [4]),pIC50 (human NLRP3 [3]; [5]),other results
"C[C@H]1C[C@@H](NC(=O)C2(c3ccc(C(F)(F)F)cc3O)CC2)CN(c2nnn[nH]2)C1 [Compound 16A, 1-(2-hydroxy-4-(trifluoromethyl)phenyl)-N-((3R,5S)-5-methyl-1-(1H-tetrazol-5-yl)piperidin-3-yl)cyclopropane-1-carboxamide]",> 6.00,> 8.00,> 6.00,pIC50 (human NLRP3 [1]): 7.39; pIC50 (human NLRP3 [2]; read-out: PBMC IC50): 8.37; pIC50 (human NLRP3 [3]; read-out: hWB IC50): 7.21; pIC50 (mouse NLRP3): 7.09; pIC50 (mouse NLRP3; [6]): > 6.00
"C[C@H]1C[C@@H](NC(=O)C2(c3c(O)cc(C4CC4)cc3C(F)F)CC2)CN(c2nnn[nH]2)C1 (single isomer, unassigned) [97A*]",> 6.00,6.30 to 7.00,–,pIC50 (mouse NLRP3; [6]): > 6.00
"O=C(N[C@H]1CN(c2nnn[nH]2)CCC(F)(F)C1)C1(c2ccc(Cl)cc2)CC1 (single isomer, unassigned) [53A*]",> 6.00,–,> 6.00,pIC50 (mouse NLRP3; [6]): > 6.00
"O=C(N[C@@H]1CCCN(c2nnn[nH]2)C1)C1(c2ccc(Br)cc2)CC1 [Compound 39A, 1-(4-bromophenyl)-N-[(3R)-1-(1H-tetrazol-5-yl)-3-piperidyl]cyclopropanecarboxamide]",5.00 to 6.00,–,5.70 to 6.00,pIC50 (mouse NLRP3; [6]): 5.70 to 6.00
"O=C(Nc1cccc(-c2nnn[nH]2)c1)C1(c2ccc(Cl)cc2)CC1 [Comparative Example B1, N-(3-(1H-tetrazol-5-yl)phenyl)-1-(4-chlorophenyl)cyclopropane-1-carboxamide, reference compound]",–,–,–,pIC50 (human NLRP3 [1]): 5.10; pIC50 (human NLRP3 [2]; read-out: PBMC IC50): 6.32; pIC50 (mouse NLRP3): < 4.30
"C[C@@H]1CCN(c2nnn[nH]2)C[C@H](NC(=O)C2(c3ccc(Cl)c(F)c3O)CC2)C1 (single isomer, unassigned) [18A*, 1-(4-chloro-3-fluoro-2-hydroxyphenyl)-N-(5-methyl-1-(1H-tetrazol-5-yl)azepan-3-yl)cyclopropane-1-carboxamide]",> 6.00,> 8.00,> 6.00,–
"C[C@@H]1CCN(c2nnn[nH]2)C[C@H](NC(=O)C2(c3ccc(OC(F)(F)F)cc3)CC2)C1 (single isomer, unassigned) [57A*]",> 6.00,7.00 to 8.00,5.70 to 6.00,–
"C[C@H]1CC[C@@H](NC(=O)C2(c3ccc(C(F)(F)F)cc3O)CC2)CN(c2nnn[nH]2)C1 [89A*, 1-(2-hydroxy-4-(trifluoromethyl)phenyl)-N-((3R,6S)-6-methyl-1-(1H-tetrazol-5-yl)azepan-3-yl)cyclopropane-1-carboxamide]",> 6.00,> 8.00,5.52 to 5.70,–
"O=C(N[C@@H]1CCC[C@@H]2CC[C@H]1N2c1nnn[nH]1)C1(c2ccc(C(F)(F)F)cc2O)CC1 [88A*, N-((1R,2R,6R)-9-(1H-tetrazol-5-yl)-9-azabicyclo[4.2.1]nonan-2-yl)-1-(2-hydroxy-4-(trifluoromethyl)phenyl)cyclopropane-1-carboxamide]",> 6.00,–,–,pIC50 (human NLRP3 [2]; [7]): > 8.00; pIC50 (human NLRP3 [3]; [8]): > 6.00
"C[C@@H]1CCN(c2nnn[nH]2)C[C@H](NC(=O)C2(c3ccc(OC(F)(F)F)cc3O)CC2)C1 (single isomer, unassigned) [62A*]",> 6.00,> 8.00,> 6.00,–
"O=C(N[C@@H]1CCCN(c2nnn[nH]2)C1)C1(c2ccc(Cl)cc2O)CC1 [Compound 15A, (R)-N-(1-(1H-tetrazol-5-yl)piperidin-3-yl)-1-(4-chloro-2-hydroxyphenyl)cyclopropane-1-carboxamide]",5.00 to 6.00,6.30 to 7.00,> 6.00,pIC50 (human NLRP3 [1]): 5.74; fold increase in binding activity (SPA IC50) (human NLRP3 [1]; relative to Compound 10A): > 5 fold; pIC50 (human NLRP3 [2]; read-out: PBMC IC50): 6.70; fold increase in potency as measured by PBMC IC50 (human NLRP3 [2]; relative to Compound 10A): > 10 fold; pIC50 (human NLRP3 [3]; read-out: hWB IC50): 6.27; fold increase in potency as measured by hWB IC50 (human NLRP3 [3]; relative to Compound 10A): > 13 fold
"Cc1cc(Cl)cc(O)c1C1(C(=O)N[C@@H]2C[C@H](C)CN(c3nnn[nH]3)C2)CC1 [Compound 33A, 1-(4-chloro-2-hydroxy-6-methylphenyl)-N-((3R,5S)-5-methyl-1-(1H-tetrazol-5-yl)piperidin-3-yl)cyclopropane-1-carboxamide]",> 6.00,7.00 to 8.00,< 5.52,–
"O=C(N[C@@H]1CC[C@H]2CC[C@@H]1N2c1nnn[nH]1)C1(c2ccc(Cl)cc2O)CC1 [75C*, N-((1S,2R,5S)-8-(1H-tetrazol-5-yl)-8-azabicyclo[3.2.1]octan-2-yl)-1-(4-chloro-2-hydroxyphenyl)cyclopropane-1-carboxamide]",> 6.00,–,5.70 to 6.00,pIC50 (human NLRP3 [2]; [7]): 7.00 to 8.00
"C[C@H]1C[C@@H](NC(=O)C2(c3ccc(OC(F)(F)F)cc3O)CC2)CN(c2nnn[nH]2)C1 [Compound 17A, 1-(2-hydroxy-4-(trifluoromethoxy)phenyl)-N-((3R,5S)-5-methyl-1-(1H-tetrazol-5-yl)piperidin-3-yl)cyclopropane-1-carboxamide]",> 6.00,7.00 to 8.00,> 6.00,pIC50 (human NLRP3 [1]): 7.01; pIC50 (human NLRP3 [2]; read-out: PBMC IC50): 7.77; pIC50 (human NLRP3 [3]; read-out: hWB IC50): 6.64
"C[C@@H]1CCN(c2nnn[nH]2)C[C@H](NC(=O)C2(c3c(F)cc(Cl)cc3F)CC2)C1 (single isomer, unassigned) [72A*]",> 6.00,> 8.00,< 5.52,–
"C[C@@H]1CCN(c2nnn[nH]2)C[C@H](NC(=O)C2(c3ccc(OC(F)(F)F)cc3F)CC2)C1 (single isomer, unassigned) [64A*]",> 6.00,7.00 to 8.00,> 6.00,–
"C[C@@H]1C[C@@H](NC(=O)C2(c3ccc(OC(F)(F)F)cc3)CC2)[C@H]2CC[C@@H]1N2c1nnn[nH]1 [82A*, N-((1R,2R,4R,5S)-4-methy1-8-(1H-tetrazol-5-yl)-8-azabicyclo[3.2.1]octan-2-yl)-1-(4-(trifluoromethoxy)phenyl)cyclopropane-1-carboxamide]",> 6.00,–,–,pIC50 (human NLRP3 [2]; [7]): > 8.00; pIC50 (human NLRP3 [3]; [8]): > 6.00
"O=C(N[C@@H]1C[C@H](C(F)(F)F)CN(c2nnn[nH]2)C1)C1(c2ccc(Cl)cc2)CC1 [Compound 45A, 1-(4-chlorophenyl)-N-[(3R,5S)-1-(1H-tetrazol-5-yl)-5-(trifluoromethyl)-3-piperidyl]cyclopropanecarboxamide]",5.00 to 6.00,–,5.52 to 5.70,pIC50 (mouse NLRP3; [6]): > 6.00
"C[C@@H]1C[C@@H](NC(=O)C2(c3ccc(SC(F)F)cc3)CC2)[C@H]2CC[C@@H]1N2c1nnn[nH]1 [85A*, 1-(4-((difluoromethyl)thio)phenyl)-N-((1R,2R,4R,5S)-4-methyl-8-(1H-tetrazol-5-yl)-8-azabicyclo[3.2.1]octan-2-yl)cyclopropane-1-carboxamide]",> 6.00,–,–,pIC50 (human NLRP3 [2]; [7]): > 8.00; pIC50 (human NLRP3 [3]; [8]): > 6.00
"C[C@H]1C[C@@H](NC(=O)C2(c3ccc(OC(F)F)cc3O)CC2)CN(c2nnn[nH]2)C1 [Compound 19A, 1-(4-(difluoromethoxy)-2-hydroxyphenyl)-N-((3R,5S)-5-methyl-1-(1H-tetrazol-5-yl)piperidin-3-yl)cyclopropane-1-carboxamide]",> 6.00,7.00 to 8.00,> 6.00,–
"C[C@@H]1CCN(c2nnn[nH]2)C[C@H](NC(=O)C2(c3ccc(C(F)(F)F)cc3O)CC2)C1 (single isomer, unassigned) [63A*]",> 6.00,> 8.00,> 6.00,–
